Test results as given in ChEMBL document CHEMBL4052714, “Synthesis and antibacterial activity of novel 4″-O-(1-aralkyl-1,2,3-triazol-4-methyl-carbamoyl) azithromycin analogs” (2017).
≈ marks a conversion by molar mass, not a printed value.

What was measured:
Assay type in all cases: functional
Streptococcus pneumoniae [1] = assay: Antibacterial activity against erythromycin-resistant Streptococcus pneumoniae B1 expressing ermB gene
Streptococcus pyogenes [2] = assay: Antibacterial activity against erythromycin-resistant Streptococcus pyogenes isolate R2
Streptococcus pneumoniae [3] = assay: Antibacterial activity against erythromycin-susceptible Streptococcus pneumoniae ATCC 49619
Escherichia coli = assay: Antibacterial activity against Escherichia coli ATCC 25922
Streptococcus pneumoniae [4] = assay: Antibacterial activity against erythromycin-resistant Streptococcus pneumoniae AB11 expressing ermB/mefA gene
Pseudomonas aeruginosa = assay: Antibacterial activity against Pseudomonas aeruginosa ATCC 27853
Streptococcus pyogenes [5] = assay: Antibacterial activity against erythromycin-susceptible Streptococcus pyogenes isolate S2
Staphylococcus aureus [6] = assay: Antibacterial activity against erythromycin-susceptible Staphylococcus aureus ATCC 25923
Streptococcus pneumoniae [7] = assay: Antibacterial activity against erythromycin-resistant Streptococcus pneumoniae A22072 expressing mefA gene
Staphylococcus aureus [8] = assay: Antibacterial activity against methicillin-susceptible Staphylococcus aureus ATCC 29213

| Structure (SMILES) | MIC (Streptococcus pneumoniae [1]) [µg/mL] | MIC (Streptococcus pyogenes [2]) [µg/mL] | MIC (Streptococcus pneumoniae [3]) [µg/mL] | MIC (Escherichia coli) [µg/mL] | MIC (Streptococcus pneumoniae [4]) [µg/mL] | MIC (Pseudomonas aeruginosa) [µg/mL] | MIC (Streptococcus pyogenes [5]) [µg/mL] | MIC (Staphylococcus aureus [6]) [µg/mL] | MIC (Streptococcus pneumoniae [7]) [µg/mL] | MIC (Staphylococcus aureus [8]) [µg/mL] |
| --- | --- | --- | --- | --- | --- | --- | --- | --- | --- | --- |
| CC[C@H]1OC(=O)[C@H](C)[C@@H](O[C@H]2C[C@@](C)(OC)[C@@H](OC(=O)NCc3cn(Cc4ccccc4F)nn3)[C@H](C)O2)[C@H](C)[C@@H](O[C@@H]2O[C@H](C)C[C@H](N(C)C)[C@H]2O)[C@](C)(O)C[C@@H](C)CN(C)[C@H](C)[C@H]2OC(=O)O[C@@]21C | 2 (≈ 1.99 µM) | 128 (≈ 127 µM) | 0.5 (≈ 0.496 µM) | 128 (≈ 127 µM) | 0.25 (≈ 0.248 µM) | 64 (≈ 63.5 µM) | 0.125 (≈ 0.124 µM) | 4 (≈ 3.97 µM) | 1 (≈ 0.993 µM) | 32 (≈ 31.8 µM) |
| CC[C@H]1OC(=O)[C@H](C)[C@@H](O[C@H]2C[C@@](C)(OC)[C@@H](OC(=O)NCc3cn(Cc4ccc(Cl)cc4)nn3)[C@H](C)O2)[C@H](C)[C@@H](O[C@@H]2O[C@H](C)C[C@H](N(C)C)[C@H]2O)[C@](C)(O)C[C@@H](C)CN(C)[C@H](C)[C@H]2OC(=O)O[C@@]21C | 8 (≈ 7.82 µM) | 64 (≈ 62.5 µM) | 1 (≈ 0.977 µM) | 64 (≈ 62.5 µM) | 4 (≈ 3.91 µM) | 64 (≈ 62.5 µM) | 0.125 (≈ 0.122 µM) | 4 (≈ 3.91 µM) | 1 (≈ 0.977 µM) | 32 (≈ 31.3 µM) |
| CC[C@H]1OC(=O)[C@H](C)[C@@H](O[C@H]2C[C@@](C)(OC)[C@@H](OC(=O)NCc3cn(Cc4ccc(C)cc4)nn3)[C@H](C)O2)[C@H](C)[C@@H](O[C@@H]2O[C@H](C)C[C@H](N(C)C)[C@H]2O)[C@](C)(O)C[C@@H](C)CN(C)[C@H](C)[C@@H](OC(=O)NCc2ccccc2)[C@]1(C)O | 0.25 (≈ 0.225 µM) | 32 (≈ 28.8 µM) | 0.125 (≈ 0.113 µM) | 32 (≈ 28.8 µM) | 0.25 (≈ 0.225 µM) | 32 (≈ 28.8 µM) | < 0.002 | 0.5 (≈ 0.45 µM) | 0.125 (≈ 0.113 µM) | 16 (≈ 14.4 µM) |
| CC[C@H]1OC(=O)[C@H](C)[C@@H](O[C@H]2C[C@@](C)(OC)[C@@H](OC(=O)NCc3cn(Cc4ccccc4)nn3)[C@H](C)O2)[C@H](C)[C@@H](O[C@@H]2O[C@H](C)C[C@H](N(C)C)[C@H]2O)[C@](C)(O)C[C@@H](C)CN(C)[C@H](C)[C@@H](OC(=O)NCc2ccncc2)[C@]1(C)O | 0.125 (≈ 0.114 µM) | 32 (≈ 29.2 µM) | 0.5 (≈ 0.456 µM) | 32 (≈ 29.2 µM) | 0.25 (≈ 0.228 µM) | 64 (≈ 58.3 µM) | 0.03 (≈ 0.0273 µM) | 1 (≈ 0.911 µM) | 0.06 (≈ 0.0547 µM) | 32 (≈ 29.2 µM) |
| CC[C@H]1OC(=O)[C@H](C)[C@@H](O[C@H]2C[C@@](C)(OC)[C@@H](OC(=O)NCc3cn(Cc4cccc(Cl)c4)nn3)[C@H](C)O2)[C@H](C)[C@@H](O[C@@H]2O[C@H](C)C[C@H](N(C)C)[C@H]2O)[C@](C)(O)C[C@@H](C)CN(C)[C@H](C)[C@H]2OC(=O)O[C@@]21C | 4 (≈ 3.91 µM) | 16 (≈ 15.6 µM) | 1 (≈ 0.977 µM) | 128 (≈ 125 µM) | 1 (≈ 0.977 µM) | 64 (≈ 62.5 µM) | 0.06 (≈ 0.0586 µM) | 4 (≈ 3.91 µM) | 0.5 (≈ 0.488 µM) | 32 (≈ 31.3 µM) |
| CC[C@H]1OC(=O)[C@H](C)[C@@H](O[C@H]2C[C@@](C)(OC)[C@@H](OC(=O)NCc3cn(Cc4ccccc4)nn3)[C@H](C)O2)[C@H](C)[C@@H](O[C@@H]2O[C@H](C)C[C@H](N(C)C)[C@H]2O)[C@](C)(O)C[C@@H](C)CN(C)[C@H](C)[C@@H](OC(=O)NCCc2ccccc2)[C@]1(C)O | 0.25 (≈ 0.225 µM) | 32 (≈ 28.8 µM) | 0.125 (≈ 0.113 µM) | 16 (≈ 14.4 µM) | 0.25 (≈ 0.225 µM) | 8 (≈ 7.2 µM) | < 0.002 | 0.25 (≈ 0.225 µM) | 0.125 (≈ 0.113 µM) | 16 (≈ 14.4 µM) |
| CC[C@H]1OC(=O)[C@H](C)[C@@H](O[C@H]2C[C@@](C)(OC)[C@@H](OC(=O)NCc3cn(Cc4ccc(F)cc4)nn3)[C@H](C)O2)[C@H](C)[C@@H](O[C@@H]2O[C@H](C)C[C@H](N(C)C)[C@H]2O)[C@](C)(O)C[C@@H](C)CN(C)[C@H](C)[C@H]2OC(=O)O[C@@]21C | 8 (≈ 7.94 µM) | 32 (≈ 31.8 µM) | 1 (≈ 0.993 µM) | 128 (≈ 127 µM) | 4 (≈ 3.97 µM) | 64 (≈ 63.5 µM) | 0.125 (≈ 0.124 µM) | 4 (≈ 3.97 µM) | 1 (≈ 0.993 µM) | 32 (≈ 31.8 µM) |
| CC[C@H]1OC(=O)[C@H](C)[C@@H](O[C@H]2C[C@@](C)(OC)[C@@H](OC(=O)NCc3cn(Cc4c(Cl)cccc4Cl)nn3)[C@H](C)O2)[C@H](C)[C@@H](O[C@@H]2O[C@H](C)C[C@H](N(C)C)[C@H]2O)[C@](C)(O)C[C@@H](C)CN(C)[C@H](C)[C@@H](OC(=O)NCc2ccccc2)[C@]1(C)O | 0.25 (≈ 0.215 µM) | 64 (≈ 54.9 µM) | 0.125 (≈ 0.107 µM) | 32 (≈ 27.5 µM) | 0.25 (≈ 0.215 µM) | 32 (≈ 27.5 µM) | < 0.002 | 0.25 (≈ 0.215 µM) | 0.25 (≈ 0.215 µM) | 16 (≈ 13.7 µM) |
| CC[C@H]1OC(=O)[C@H](C)[C@@H](O[C@H]2C[C@@](C)(OC)[C@@H](OC(=O)NCc3cn(Cc4ccc(Cl)cc4Cl)nn3)[C@H](C)O2)[C@H](C)[C@@H](O[C@@H]2O[C@H](C)C[C@H](N(C)C)[C@H]2O)[C@](C)(O)C[C@@H](C)CN(C)[C@H](C)[C@H]2OC(=O)O[C@@]21C | 4 (≈ 3.78 µM) | 32 (≈ 30.2 µM) | 1 (≈ 0.945 µM) | 128 (≈ 121 µM) | 2 (≈ 1.89 µM) | 64 (≈ 60.5 µM) | 0.125 (≈ 0.118 µM) | 4 (≈ 3.78 µM) | 1 (≈ 0.945 µM) | 32 (≈ 30.2 µM) |
| CC[C@H]1OC(=O)[C@H](C)[C@@H](O[C@H]2C[C@@](C)(OC)[C@@H](OC(=O)NCc3cn(C4CCCCC4)nn3)[C@H](C)O2)[C@H](C)[C@@H](O[C@@H]2O[C@H](C)C[C@H](N(C)C)[C@H]2O)[C@](C)(O)C[C@@H](C)CN(C)[C@H](C)[C@H]2OC(=O)O[C@@]21C | 8 (≈ 8.15 µM) | 32 (≈ 32.6 µM) | 1 (≈ 1.02 µM) | 128 (≈ 130 µM) | 4 (≈ 4.08 µM) | 64 (≈ 65.2 µM) | 0.25 (≈ 0.255 µM) | 16 (≈ 16.3 µM) | 1 (≈ 1.02 µM) | 64 (≈ 65.2 µM) |
| CC[C@H]1OC(=O)[C@H](C)[C@@H](O[C@H]2C[C@@](C)(OC)[C@@H](OC(=O)NCc3cn(Cc4cccc(F)c4)nn3)[C@H](C)O2)[C@H](C)[C@@H](O[C@@H]2O[C@H](C)C[C@H](N(C)C)[C@H]2O)[C@](C)(O)C[C@@H](C)CN(C)[C@H](C)[C@H]2OC(=O)O[C@@]21C | 4 (≈ 3.97 µM) | 128 (≈ 127 µM) | 1 (≈ 0.993 µM) | 128 (≈ 127 µM) | 0.5 (≈ 0.496 µM) | 64 (≈ 63.5 µM) | 0.125 (≈ 0.124 µM) | 4 (≈ 3.97 µM) | 4 (≈ 3.97 µM) | 32 (≈ 31.8 µM) |
| CC[C@H]1OC(=O)[C@H](C)[C@@H](O[C@H]2C[C@@](C)(OC)[C@@H](OC(=O)NCc3cn(Cc4ccccc4Cl)nn3)[C@H](C)O2)[C@H](C)[C@@H](O[C@@H]2O[C@H](C)C[C@H](N(C)C)[C@H]2O)[C@](C)(O)C[C@@H](C)CN(C)[C@H](C)[C@H]2OC(=O)O[C@@]21C | 8 (≈ 7.82 µM) | 16 (≈ 15.6 µM) | 1 (≈ 0.977 µM) | 128 (≈ 125 µM) | 4 (≈ 3.91 µM) | 64 (≈ 62.5 µM) | 0.06 (≈ 0.0586 µM) | 4 (≈ 3.91 µM) | 2 (≈ 1.95 µM) | 32 (≈ 31.3 µM) |
| CC[C@H]1OC(=O)[C@H](C)[C@@H](O[C@H]2C[C@@](C)(OC)[C@@H](OC(=O)NCc3cn(Cc4ccccc4)nn3)[C@H](C)O2)[C@H](C)[C@@H](O[C@@H]2O[C@H](C)C[C@H](N(C)C)[C@H]2O)[C@](C)(O)C[C@@H](C)CN(C)[C@H](C)[C@@H](OC(=O)NCc2ccccc2)[C@]1(C)O | 0.25 (≈ 0.228 µM) | 32 (≈ 29.2 µM) | 0.125 (≈ 0.114 µM) | 16 (≈ 14.6 µM) | 0.25 (≈ 0.228 µM) | 32 (≈ 29.2 µM) | < 0.002 | 0.016 (≈ 0.0146 µM) | 0.25 (≈ 0.228 µM) | 16 (≈ 14.6 µM) |
| CC[C@H]1OC(=O)[C@H](C)[C@@H](O[C@H]2C[C@@](C)(OC)[C@@H](OC(=O)NCc3cn(Cc4ccc(Cl)cc4)nn3)[C@H](C)O2)[C@H](C)[C@@H](O[C@@H]2O[C@H](C)C[C@H](N(C)C)[C@H]2O)[C@](C)(O)C[C@@H](C)CN(C)[C@H](C)[C@@H](OC(=O)NCc2ccccc2)[C@]1(C)O | 0.25 (≈ 0.221 µM) | 32 (≈ 28.3 µM) | 0.25 (≈ 0.221 µM) | 32 (≈ 28.3 µM) | 0.25 (≈ 0.221 µM) | 32 (≈ 28.3 µM) | < 0.002 | 0.25 (≈ 0.221 µM) | 0.125 (≈ 0.111 µM) | 16 (≈ 14.1 µM) |
